Assay results: patent US6673795B2, “Pyrimidine, pyrazine and triazane derivatives” (Hoffmann-La Roche Inc., priority 2001, dated 2004)

Key:
rat mGluR1a receptor = target: T1, rat mGluR1a receptor (Rattus norvegicus, UniProt P23385); experiment: Binding assay for the characterization of mGluR 1 antagonistic properties (tritiated radioligand displacement); settings: membranes of HEK 293 cells transiently transfected with rat mGluR1a; tritiated 1-ethyl-2-methyl-6-oxo-4-(1,1,2-tritritio-1,2,4,5-tetrahydro-benzo[d]azepin-3-yl)-1,6-dihydro-pyrimidine-5-carbonitrile at 3 nM; 1 hour at room temperature
T1 construct: expressed in transfected cells; host or cells: HEK 293 cells, transient transfection; membrane preparation
T1 sequence (P23385 19-1199): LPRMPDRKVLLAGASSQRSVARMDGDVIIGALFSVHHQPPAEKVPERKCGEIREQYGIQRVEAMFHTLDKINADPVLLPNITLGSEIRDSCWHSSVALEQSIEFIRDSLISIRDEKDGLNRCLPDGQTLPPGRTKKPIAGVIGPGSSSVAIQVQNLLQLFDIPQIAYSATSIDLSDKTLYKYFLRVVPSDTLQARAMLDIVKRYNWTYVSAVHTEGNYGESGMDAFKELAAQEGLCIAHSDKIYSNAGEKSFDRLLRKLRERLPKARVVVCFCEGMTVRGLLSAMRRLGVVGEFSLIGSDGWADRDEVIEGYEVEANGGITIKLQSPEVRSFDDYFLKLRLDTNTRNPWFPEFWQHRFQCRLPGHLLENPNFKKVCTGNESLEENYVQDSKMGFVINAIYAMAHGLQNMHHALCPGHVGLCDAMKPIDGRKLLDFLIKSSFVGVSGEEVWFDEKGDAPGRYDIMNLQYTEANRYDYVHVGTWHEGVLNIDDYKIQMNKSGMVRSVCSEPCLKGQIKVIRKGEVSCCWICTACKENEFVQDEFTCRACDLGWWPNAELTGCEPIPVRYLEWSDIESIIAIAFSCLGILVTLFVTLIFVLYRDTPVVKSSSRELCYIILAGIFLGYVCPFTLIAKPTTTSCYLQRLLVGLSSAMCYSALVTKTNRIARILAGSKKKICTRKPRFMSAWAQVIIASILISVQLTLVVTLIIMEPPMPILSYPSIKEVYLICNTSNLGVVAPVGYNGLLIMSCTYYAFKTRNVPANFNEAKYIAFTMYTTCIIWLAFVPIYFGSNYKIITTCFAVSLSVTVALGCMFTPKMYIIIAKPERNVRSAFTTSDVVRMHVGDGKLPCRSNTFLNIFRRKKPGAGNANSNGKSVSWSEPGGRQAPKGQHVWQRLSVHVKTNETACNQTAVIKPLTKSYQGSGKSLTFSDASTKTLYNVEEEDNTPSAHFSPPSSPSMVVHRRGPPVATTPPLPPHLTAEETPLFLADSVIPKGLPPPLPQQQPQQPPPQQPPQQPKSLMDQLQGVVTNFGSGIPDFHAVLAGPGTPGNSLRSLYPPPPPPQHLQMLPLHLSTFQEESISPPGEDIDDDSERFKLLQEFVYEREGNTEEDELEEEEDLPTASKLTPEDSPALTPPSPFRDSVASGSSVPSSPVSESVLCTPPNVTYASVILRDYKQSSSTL
Method: Binding Assay for the Characterization of mGluR 1 Antagonistic Properties
Binding assay with tritiated 1-ethyl-2-methyl-6-oxo-4-(1,1,2-tritritio-1,2,4,5-tetrahydro-benzo[d]azepin-3-yl)-1,6-dihydro-pyrimidine-5-carbonitrile: HEK 293 cells were transiently transfected with the rat mGluR^1 a receptor. The cells were collected and washed 3 times with PBS. The cell pellets were frozen at −80° C. Membranes were prepared from HEK 293 cells transfected with the rat mGluR^1 a receptor and used in the binding experiments at 10 μg proteins per assay after resuspension in a HEPES NaOH 20 mM, pH=7.4 binding buffer. 1-Ethyl-2-methyl-6-oxo-4-(1,1,2-tritritio-1,2,4,5-tetrahydro-benzo [d]azepin-3-yl)-1,6-dihydro-pyrimidine-5-carbonitrile (S.A 33.4 Ci/mmol) was used at 3 nM final concentration. The incubation with variable concentrations of potential inhibitors was performed for 1 hour at room temperature, the incubate was then filtered onto GF/B glass fiber filter preincubated 1 hour in PEI 0,1% and washed 3 times with 1 ml of cold binding buffer. The radioactivity retained on the unifilter 96 was counted using a Topcount β counter. After correction for non specific binding the data were normalized and the IC50 value calculated using a 4 parameters logistic equation which was fitted to the inhibition curve.

Row | IC50 (rat mGluR1a receptor) | melting point | SMILES
1 | 0.18 µM | 116 to 119 °C | CCOc1nc(C)nc(N2CCN(c3ccc(F)cc3)CC2)c1[N+](=O)[O-] [Example 10-2, 4-ethoxy-6-[4-(4-fluoro-phenyl)-piperazin-1-yl]-2-methyl-5-nitro-pyrimidine]
2 | 0.017 µM | 99 to 101 °C | CCc1nc(C#N)c(N2CCN(c3ccccc3)CC2)nc1C [Example 75-1, 5′-ethyl-6′-methyl-4-phenyl-3,4,5,6-tetrahydro-2H-[1,2′]bipyrazinyl-3′-carbonitrile]

Continued, compound first:

Row | SMILES | IC50 (rat mGluR1a receptor) | melting point
3 | Cc1nc(N2CCN(c3ccc(F)cc3)CC2)c([N+](=O)[O-])c(=O)[nH]1 [Example 1, 6-[4-(4-Fluoro-phenyl)-piperazin-1-yl]-2-methyl-5-nitro-3H-pyrimidin-4-one] | 0.81 µM | > 250 °C (dec.)
4 | Cc1nc(N2CCC(c3ccccc3)CC2)c([N+](=O)[O-])c(=O)[nH]1 [Example 5, 2-Methyl-5-nitro-6-(4-phenyl-piperidin-1-yl)-3H-pyrimidin-4-one] | 0.063 µM | 210 to 213 °C
5 | Cc1nc(N2CCC(c3ccc(F)cc3)CC2)c([N+](=O)[O-])c(=O)n1CCCCO [Example 18, 6-[4-(4-Fluoro-phenyl)-piperidin-1-yl]-3-(4-hydroxy-butyl)-2-methyl-5-nitro-3H-pyrimidin-4-one] | 0.28 µM | 154 to 156 °C
6 | N#Cc1ncc(NCCO)nc1N1CCN(c2ccc(F)cc2)CC1 [Example 83, 4-(4-Fluoro-phenyl)-6′-(2-hydroxy-ethylamino)-3,4,5,6-tetrahydro-2H-[1,2′]bipyrazinyl-3′-carbonitrile] | 1 µM | 149 to 151 °C
